According to publication PMC5503984, “Characterisation of preproendothelin-1 derived peptides identifies Endothelin-Like Domain Peptide as a modulator of Endothelin-1” (Scientific Reports, 2017):

What was measured:
[1] = Clearance of proET-1 peptides after i.v. bolus in anaesthetised rats; type: in vivo, rat
Protocol: To examine whether circulating half-lives influenced plasma levels of proET-1 peptides clearance rates were investigated in anaesthetised rats. […] Based on a circulating blood volume of 7.2 ± 0.3 ml per 100 g body weight, a mean weight of 345 ± 6 g and hematocrit of 40–60%, the hypothetical maximum plasma concentrations were 23–35 pmol/ml. However, the levels of NT-proET-1, ELDP and CT-proET-1 30 s after injection were 0.29 ± 0.02, 3.65 ± 0.23, and 11.74 ± 0.64 pmol/ml, respectively. Relative to estimates for dilution in circulating blood, these values represent ≈1%, 10–16%, and 34–51% of administered peptide for NT-proET-1, ELDP and CT-proET-1. Moreover, NT-proET-1 was almost completely cleared from the circulation in <5 min (estimated initial t½ < 20 s).
Figure 5 Comparison of clearance rates of NT-proET-1, ELDP and CT-proET-1 in anaesthetised rats. A bolus dose containing 1 nmol/kg of each proET-1 peptide as a combined solution prepared in 0.9% saline/0.1% BSA was administered i.v. and heparinised arterial blood samples (0.5 ml) were collected at 0.5, 1, 2, 5, 10, 20 and 40 min after administration of proET-1 peptides. NT-proET-1 (mauve circles), ELDP (red circles) and CT-proET-1 (blue circles) were measured by magnetic bead-based multiplex assays using Luminex methodology (values are mean ± SD, except where SD is less than the symbol size).
A multiplexed immunoassay system was used for simultaneous measurement of NT-proET-1, ELDP and CT-proET-1 in small volumes of rat plasma. Capture antibodies were conjugated to magnetic beads (region 45 – NT-proET-1, region 36 – ELDP, and region 27 – CT-proET-1) following standard protocols (Luminex Corporation). For assay capture antibody-coated magnetic beads were diluted as a premixed combination (10 µl/well) and incubated overnight at 4 °C on an orbital plate mixer with plasma (15 µl) and assay buffer (135 µl). For detection, beads were washed using a ring magnet plate washer before adding 25 µl of combined biotinylated detection antibodies and incubating for 2 h at room temperature on an orbital plate mixer.
All experiments were conducted according to the Animals (Scientific Procedures) Act 1986, UK, and approved by the UK Home Office. Clearance rates of proET-1 peptides and blood pressure effects of ELDP were determined in male Wistar rats (Charles River) anaesthetised with sodium thiopentone (120 mg/kg i.p.). Peptides were administered i.v. via a polyethylene catheter in the left femoral vein. Blood samples (0.5 ml) were collected from a catheter in the left carotid artery into chilled 1.5 ml microcentrifuge tubes containing 50 U/5 µl of heparin. Samples were centrifuged at 12,000 rpm for 2 min at 4 °C. Plasma (50 µl aliquots) samples were stored at −80 °C for subsequent analyses. Blood pressure and heart rate were recorded from the left carotid artery via a polyethylene catheter using Labchart 7.1 (AD Instruments Ltd).

[2] = system: orphan GPCRs; test: PathHunter Orphan GPCR biosensor panel (ß-arrestin binding, ß-galactosidase complementation); type: cell-based; conditions: 0.1 µM ELDP, 90 min at room temperature, duplicate, 5000 cells per well; chemiluminescence; no response above three standard deviations of control
From the text: An important component of ET-1-induced vasoconstriction is Ca^2+ influx through voltage-gated L-type Ca^2+ channels, [67]. Modulation of ET-1 responses by ELDP therefore likely involves facilitation of Ca^2+ influx. Responses to norepinephrine and serotonin are also augmented by ET-1, and this has been attributed to increased Ca^2+ influx[68]–[70]. To investigate whether ELDP mediates its effects via a distinct G-protein coupled receptor (GPCR), whose ligand pairing had yet to be assigned, ELDP was evaluated against a panel of cell-expressed orphan GPCRs using a detection system based on ß-arrestin binding (Supplementary Figure S3). […]
arrestin and to the GPCR complementing each other to reconstitute ß-galactosidase activity, which is then measured by chemiluminescence ß-galactosidase assay as an index of receptor binding (1,2).
Orphan GPCR screening for ELDP was undertaken by DiscoverRx Corporation, Fremont, CA 94538, USA. […] At the end of the incubation period chemiluminescent substrate was add, and incubated for 60 min before measurement of relative luminescence (RLU) using a PerkinElmer […]
Data Analysis: Percentage activity was calculated for each test well relative to the mean RLU of the corresponding vehicle-treated GPCR. Results are expressed as mean control (%) ± coefficient of […]

[3] = rat, 1 nmol/kg i.v. bolus, plasma sampled 0.5–40 min, two-phase clearance

In the case of “ALENLLPTKATDRENRCQCASQKDKKCWNFCQAGKELRAEDIMEKDWNNHKKGKDCSKLGKKCIYQQLVRGRKI (disulfide (positions not given here)) [ELDP]”, the “plasma level 30 s after injection” value ([1]; anaesthetised male Wistar rats, bolus 1 nmol/kg i.v. of each peptide as a combined solution in 0.9% saline/0.1% BSA, arterial plasma, Luminex multiplex immunoassay, mean ± SD) is reported as 3.65 ± 0.23 pmol/mL, the “estimated t½, phase 1” value [1, 3] is reported as 0.5 min and the “estimated t½, phase 2” value [1, 3] is reported as 5.7 min. For the same sequence, the “plasma level at 30 s as % of administered peptide, relative to estimates for dilution in circulating blood” value ([1]; rat, 1 nmol/kg i.v., hypothetical maximum plasma concentration 23–35 pmol/ml) was 10–16% and the “receptor – ligand pairing in orphan GPCR screen” value [2] was “failed to identify an ELDP receptor – ligand pair”.
